Assay results reported in paper PMC5010537, “Purification and characterization of laccase from Marasmius species BBKAV79 and effective decolorization of selected textile dyes” (3 Biotech, 2016).

System: T1, laccase from Marasmius sp. BBKAV79
T1 construct: gene benzenediol:oxygen oxidoreductase; native extracellular enzyme purified from culture supernatant (ammonium sulfate, Sephadex G-100, DEAE-cellulose); monomer, ~75 kDa by native PAGE
Test: absorbance at […] nm, Lineweaver-Burk plot
Assay type: biochemical
Conditions: 100 mM sodium acetate buffer pH 5.5; guaiacol 0.18-10 mM; free enzyme
Description: BBKAV79 | K m and V max of purified laccase from Marasmius sp.

`COc1ccccc1O` [guaiacol] was tested. Which Km did it give?
The Km was 3.03 mM.
